Results: article PMC3961306, “Comparison of the Cancer Gene Targeting and Biochemical Selectivities of All Targeted Kinase Inhibitors Approved for Clinical Use” (PLoS ONE, 2014)
Like-named read-outs stand apart in the source and are kept apart here.

Columns and labels:
Experiment in all cases: Kinase profiling in a biochemical assay panel (mobility shift assays and ELISA), %-inhibition at 1 μM; selectivity entropy
[1] = molecular target: panel of more than 300 wild-type and mutant kinases (313 kinase panel) (Homo sapiens, UniProt P08631)
Sequence of panel of more than 300 wild-type and mutant kinases (313 kinase panel) (Homo sapiens, UniProt P08631) (P08631 whole entry, change not shown): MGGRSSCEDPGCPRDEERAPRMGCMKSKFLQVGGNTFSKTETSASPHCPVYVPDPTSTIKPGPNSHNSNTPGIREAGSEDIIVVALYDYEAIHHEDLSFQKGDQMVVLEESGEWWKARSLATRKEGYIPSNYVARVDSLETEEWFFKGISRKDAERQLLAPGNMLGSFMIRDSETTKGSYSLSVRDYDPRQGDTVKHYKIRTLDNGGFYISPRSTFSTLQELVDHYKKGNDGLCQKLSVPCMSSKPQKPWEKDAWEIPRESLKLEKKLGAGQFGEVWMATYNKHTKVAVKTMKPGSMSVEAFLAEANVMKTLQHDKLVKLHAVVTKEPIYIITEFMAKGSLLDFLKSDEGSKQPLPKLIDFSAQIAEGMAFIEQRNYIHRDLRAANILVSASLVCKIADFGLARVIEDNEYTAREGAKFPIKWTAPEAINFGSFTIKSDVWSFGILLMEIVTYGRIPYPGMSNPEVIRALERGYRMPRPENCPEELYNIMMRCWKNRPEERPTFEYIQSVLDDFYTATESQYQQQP

[2] = molecular target: panel of more than 300 wild-type and mutant kinases (313 kinase panel) (Homo sapiens, UniProt P30291)
Sequence of panel of more than 300 wild-type and mutant kinases (313 kinase panel) (Homo sapiens, UniProt P30291) (P30291 whole entry, change not shown): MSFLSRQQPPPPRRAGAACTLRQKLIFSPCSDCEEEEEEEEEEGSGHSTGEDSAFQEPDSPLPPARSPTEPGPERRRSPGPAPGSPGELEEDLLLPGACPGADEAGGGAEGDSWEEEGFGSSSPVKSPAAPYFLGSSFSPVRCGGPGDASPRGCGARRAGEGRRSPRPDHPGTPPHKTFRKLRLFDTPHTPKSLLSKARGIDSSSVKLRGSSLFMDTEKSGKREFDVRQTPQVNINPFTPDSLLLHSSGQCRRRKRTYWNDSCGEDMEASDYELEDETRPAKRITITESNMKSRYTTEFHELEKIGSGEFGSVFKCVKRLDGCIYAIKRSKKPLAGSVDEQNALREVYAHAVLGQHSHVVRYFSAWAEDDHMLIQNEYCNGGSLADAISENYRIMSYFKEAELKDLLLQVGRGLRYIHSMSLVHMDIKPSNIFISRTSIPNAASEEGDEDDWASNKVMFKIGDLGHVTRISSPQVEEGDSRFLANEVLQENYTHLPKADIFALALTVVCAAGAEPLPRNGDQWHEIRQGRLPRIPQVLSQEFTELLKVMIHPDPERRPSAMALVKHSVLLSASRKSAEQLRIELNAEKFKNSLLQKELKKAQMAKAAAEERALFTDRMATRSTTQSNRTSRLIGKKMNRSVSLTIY

[3] = molecular target: panel of more than 300 wild-type and mutant kinases (313 kinase panel) (Homo sapiens, UniProt Q9NYA1)
[4] = molecular target: panel of more than 300 wild-type and mutant kinases (313 kinase panel) (Homo sapiens, UniProt P14616)
Sequence of panel of more than 300 wild-type and mutant kinases (313 kinase panel) (Homo sapiens, UniProt P14616) (P14616 27-1297, change not shown): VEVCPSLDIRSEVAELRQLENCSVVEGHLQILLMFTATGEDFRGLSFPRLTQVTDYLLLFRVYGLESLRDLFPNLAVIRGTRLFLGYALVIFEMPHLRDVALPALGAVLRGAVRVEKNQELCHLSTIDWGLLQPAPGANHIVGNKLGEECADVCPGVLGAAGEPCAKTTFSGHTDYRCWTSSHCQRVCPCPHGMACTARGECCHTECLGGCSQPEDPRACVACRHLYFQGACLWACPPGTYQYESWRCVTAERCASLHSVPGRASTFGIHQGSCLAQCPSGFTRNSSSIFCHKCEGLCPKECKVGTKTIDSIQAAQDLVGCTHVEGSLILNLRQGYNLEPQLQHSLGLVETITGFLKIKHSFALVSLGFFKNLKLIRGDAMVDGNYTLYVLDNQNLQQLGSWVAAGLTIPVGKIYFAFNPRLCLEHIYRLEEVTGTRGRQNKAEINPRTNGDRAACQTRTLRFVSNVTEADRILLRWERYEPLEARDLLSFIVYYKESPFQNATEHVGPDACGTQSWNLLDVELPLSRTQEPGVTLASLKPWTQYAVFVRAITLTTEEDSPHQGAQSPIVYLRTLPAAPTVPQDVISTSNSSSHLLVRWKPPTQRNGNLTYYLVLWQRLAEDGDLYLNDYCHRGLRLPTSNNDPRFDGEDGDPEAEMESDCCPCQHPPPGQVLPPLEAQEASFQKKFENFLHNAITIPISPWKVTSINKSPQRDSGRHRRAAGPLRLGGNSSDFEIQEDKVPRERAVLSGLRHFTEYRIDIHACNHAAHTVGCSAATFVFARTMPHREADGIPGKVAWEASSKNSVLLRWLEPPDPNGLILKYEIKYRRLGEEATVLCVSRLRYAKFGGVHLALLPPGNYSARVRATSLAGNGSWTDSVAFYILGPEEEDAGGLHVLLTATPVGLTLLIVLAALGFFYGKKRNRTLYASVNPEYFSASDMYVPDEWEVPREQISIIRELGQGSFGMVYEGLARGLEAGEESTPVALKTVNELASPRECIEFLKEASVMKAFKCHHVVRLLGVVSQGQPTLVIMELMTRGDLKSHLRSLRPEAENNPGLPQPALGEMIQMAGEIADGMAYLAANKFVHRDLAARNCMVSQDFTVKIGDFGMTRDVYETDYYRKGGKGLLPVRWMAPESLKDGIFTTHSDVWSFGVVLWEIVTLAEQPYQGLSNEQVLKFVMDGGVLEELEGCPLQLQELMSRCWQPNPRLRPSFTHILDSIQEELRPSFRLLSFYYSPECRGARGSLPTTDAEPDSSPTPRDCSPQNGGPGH

[5] = molecular target: panel of more than 300 wild-type and mutant kinases (313 kinase panel) (Homo sapiens, UniProt Q15349)
[6] = system: panel of more than 300 wild-type and mutant kinases (313 kinase panel); conditions: for %-inhibition of EGFR(d746-750): kinase EGFR(d746-750); for %-inhibition of EGFR(d746-750/T790M): kinase EGFR(d746-750/T790M)
[7] = molecular target: T1, panel of more than 300 wild-type and mutant kinases (313 kinase panel) (Homo sapiens, UniProt Q99683)
T1 sequence (Q99683 1-1374): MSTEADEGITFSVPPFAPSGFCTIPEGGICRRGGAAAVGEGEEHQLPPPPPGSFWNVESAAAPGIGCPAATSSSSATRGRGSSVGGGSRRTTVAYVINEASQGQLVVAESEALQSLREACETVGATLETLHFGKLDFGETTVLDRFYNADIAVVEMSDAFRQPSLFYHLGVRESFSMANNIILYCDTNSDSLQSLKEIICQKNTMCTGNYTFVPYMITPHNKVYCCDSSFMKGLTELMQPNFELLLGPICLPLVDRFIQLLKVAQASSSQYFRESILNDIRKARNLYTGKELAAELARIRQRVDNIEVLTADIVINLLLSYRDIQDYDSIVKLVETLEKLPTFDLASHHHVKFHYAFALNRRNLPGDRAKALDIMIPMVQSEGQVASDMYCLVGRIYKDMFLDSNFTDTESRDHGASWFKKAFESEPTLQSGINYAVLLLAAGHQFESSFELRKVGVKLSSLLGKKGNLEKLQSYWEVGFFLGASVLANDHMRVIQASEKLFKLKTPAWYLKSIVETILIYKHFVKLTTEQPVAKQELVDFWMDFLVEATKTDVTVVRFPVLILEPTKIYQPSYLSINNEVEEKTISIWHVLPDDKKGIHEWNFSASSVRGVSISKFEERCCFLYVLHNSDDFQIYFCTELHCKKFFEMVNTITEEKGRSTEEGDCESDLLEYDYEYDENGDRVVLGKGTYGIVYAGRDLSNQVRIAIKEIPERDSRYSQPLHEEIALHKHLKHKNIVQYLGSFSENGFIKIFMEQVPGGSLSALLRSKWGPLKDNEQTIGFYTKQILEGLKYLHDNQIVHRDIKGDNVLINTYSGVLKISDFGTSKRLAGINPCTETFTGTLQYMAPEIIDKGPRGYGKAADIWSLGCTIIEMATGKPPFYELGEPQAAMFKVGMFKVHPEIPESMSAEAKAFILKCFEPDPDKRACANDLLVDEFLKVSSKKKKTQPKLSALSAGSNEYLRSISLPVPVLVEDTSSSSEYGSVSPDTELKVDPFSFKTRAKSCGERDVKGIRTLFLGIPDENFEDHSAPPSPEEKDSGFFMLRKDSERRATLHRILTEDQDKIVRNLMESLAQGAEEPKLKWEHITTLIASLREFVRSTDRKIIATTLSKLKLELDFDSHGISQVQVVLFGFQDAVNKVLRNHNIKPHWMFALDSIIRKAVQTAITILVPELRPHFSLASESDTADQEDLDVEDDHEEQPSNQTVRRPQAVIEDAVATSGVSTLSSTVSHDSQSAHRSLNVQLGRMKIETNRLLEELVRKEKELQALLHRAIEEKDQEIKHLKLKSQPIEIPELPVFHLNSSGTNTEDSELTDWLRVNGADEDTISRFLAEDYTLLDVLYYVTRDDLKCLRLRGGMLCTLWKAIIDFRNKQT

[8] = molecular target: panel of more than 300 wild-type and mutant kinases (313 kinase panel) (Homo sapiens, UniProt Q16288)
[9] = molecular target: panel of more than 300 wild-type and mutant kinases (313 kinase panel) (Homo sapiens, UniProt P08922)
[10] = molecular target: panel of more than 300 wild-type and mutant kinases (313 kinase panel) (Homo sapiens, UniProt Q02763)
Sequence of panel of more than 300 wild-type and mutant kinases (313 kinase panel) (Homo sapiens, UniProt Q02763) (Q02763 23-1124, change not shown): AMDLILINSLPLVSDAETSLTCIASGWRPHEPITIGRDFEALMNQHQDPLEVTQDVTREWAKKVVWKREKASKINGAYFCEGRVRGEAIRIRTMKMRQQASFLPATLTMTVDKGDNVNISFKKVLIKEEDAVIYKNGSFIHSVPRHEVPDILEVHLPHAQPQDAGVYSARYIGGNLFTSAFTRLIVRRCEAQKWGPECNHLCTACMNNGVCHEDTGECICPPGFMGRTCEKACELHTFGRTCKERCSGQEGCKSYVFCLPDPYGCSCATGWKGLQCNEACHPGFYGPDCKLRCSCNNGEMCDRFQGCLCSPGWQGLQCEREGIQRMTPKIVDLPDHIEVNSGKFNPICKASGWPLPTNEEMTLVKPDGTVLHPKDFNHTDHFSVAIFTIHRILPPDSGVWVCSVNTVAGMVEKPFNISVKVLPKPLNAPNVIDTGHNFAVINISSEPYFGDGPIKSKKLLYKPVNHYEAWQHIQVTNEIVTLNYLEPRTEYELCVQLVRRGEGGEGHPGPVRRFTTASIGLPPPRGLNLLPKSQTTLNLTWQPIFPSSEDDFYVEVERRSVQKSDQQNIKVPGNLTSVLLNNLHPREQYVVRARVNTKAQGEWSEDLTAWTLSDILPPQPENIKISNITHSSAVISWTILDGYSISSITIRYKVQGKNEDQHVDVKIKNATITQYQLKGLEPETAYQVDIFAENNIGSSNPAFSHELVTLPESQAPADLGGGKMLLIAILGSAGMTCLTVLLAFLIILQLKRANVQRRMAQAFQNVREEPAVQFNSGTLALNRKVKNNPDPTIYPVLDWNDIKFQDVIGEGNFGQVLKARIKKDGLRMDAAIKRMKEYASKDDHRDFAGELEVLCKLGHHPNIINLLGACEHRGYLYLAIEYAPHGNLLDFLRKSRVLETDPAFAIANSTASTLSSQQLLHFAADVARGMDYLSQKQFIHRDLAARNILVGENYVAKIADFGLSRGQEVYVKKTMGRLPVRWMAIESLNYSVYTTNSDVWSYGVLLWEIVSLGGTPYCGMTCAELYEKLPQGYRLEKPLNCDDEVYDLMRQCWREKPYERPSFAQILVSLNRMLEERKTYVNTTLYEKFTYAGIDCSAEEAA

[11] = kinase EML4-ALK, compound at 1 μM
[12] = kinase MAP3K5, compound at 1 μM

SMILES	%-inhibition of HCK ([1]; kinase HCK, compound at 1 μM) [%]	%-inhibition of WEE1 ([2]; kinase WEE1, compound at 1 μM) [%]	%-inhibition of SPHK1 ([3]; kinase SPHK1, 1 μM) [%]	%-inhibition of IRR ([4]; kinase IRR, compound at 1 μM) [%]	%-inhibition of RSK3 ([5]; kinase RSK3, 1 μM) [%]	%-inhibition of EGFR(d746-750) ([6]; compound at 1 μM) [%]	%-inhibition of EGFR(d746-750/T790M) ([6]; compound at 1 μM) [%]	%-inhibition of EML4-ALK [6, 11] [%]	%-inhibition of LYNb ([6]; kinase LYNb, compound at 1 μM) [%]	%-inhibition of NPM1-ALK ([6]; kinase NPM1-ALK, 1 μM) [%]	%-inhibition of PKCβ2 ([6]; kinase PKCβ2, 1 μM) [%]	%-inhibition of SRM ([6]; kinase SRM, 1 μM) [%]	%-inhibition of TAK1-TAB1 ([6]; kinase TAK1-TAB1, 1 μM) [%]	%-inhibition of MAP3K5 [7, 12] [%]	%-inhibition of TRKC ([8]; kinase TRKC, 1 μM) [%]	%-inhibition of ROS ([9]; kinase ROS, 1 μM) [%]	%-inhibition of TIE2 ([10]; kinase TIE2, 1 μM) [%]	%-inhibition of NPM1-ALK [6] [%]	%-inhibition of LYNb ([6]; 1 µM) [%]	%-inhibition of PKCβ2 ([6]; 1 µM) [%]	other results
CCCS(=O)(=O)Nc1ccc(F)c(C(=O)c2c[nH]c3ncc(-c4ccc(Cl)cc4)cc23)c1F [vemurafenib]	30	-1.64	-11	21	-0.497	2.81	4.62	-1.53	62	-1.72	-3	102	9	13	5	2	-2.42	–	–	–	–
CO[C@H]1C[C@@H]2CC[C@@H](C)[C@@](O)(O2)C(=O)C(=O)N2CCCC[C@H]2C(=O)O[C@H]([C@H](C)C[C@@H]2CC[C@@H](OCCO)[C@H](OC)C2)CC(=O)[C@H](C)/C=C(\C)[C@@H](O)[C@@H](OC)C(=O)[C@H](C)C[C@H](C)/C=C/C=C/C=C/1C [everolimus]	-2.7	7	-16	0.808	-9	-4	-5	-3.62	-1.66	-5.62	-9	0.151	1.54	2.56	-5	-0.608	-3.66	–	–	–	–
Cc1ccc(Nc2nccc(N(C)c3ccc4c(C)n(C)nc4c3)n2)cc1S(N)(=O)=O [pazopanib]	67	1	1.19	16	7	–	–	–	–	–	–	–	–	18	21	94	26	21	85	4.55	%-inhibition of TAK1-TAB1 [6]: -4.34%; %-inhibition of EML4-ALK ([6]; 1 µM): 27%; %-inhibition of SRM ([6]; 1 µM): 63%
CNC(=O)c1cc(Oc2ccc(NC(=O)Nc3ccc(Cl)c(C(F)(F)F)c3)c(F)c2)ccn1 [regorafenib]	59	4.42	-14	-4	45	12	3.63	-7	85	-7	-9	66	60	5	93	5	47	–	–	–	–
CC(=O)Nc1cccc(-n2c(=O)n(C3CC3)c(=O)c3c(Nc4ccc(I)cc4F)n(C)c(=O)c(C)c32)c1 [trametinib]	-2.84	9	-11	–	-5	-2.58	1.72	-2.51	-2.58	-1.79	-1.58	-4	5.47	17	-7.43	-0.611	-7	–	–	–	%-inhibition of IRR ([4]; 1 µM): 1.35%
CO[C@H]1C[C@@H]2CC[C@@H](C)[C@@](O)(O2)C(=O)C(=O)N2CCCC[C@H]2C(=O)O[C@H]([C@H](C)C[C@@H]2CC[C@@H](OC(=O)C(C)(CO)CO)[C@H](OC)C2)CC(=O)[C@H](C)/C=C(\C)[C@@H](O)[C@@H](OC)C(=O)[C@H](C)C[C@H](C)/C=C/C=C/C=C/1C [temsirolimus]	3.49	4.25	-14	-13	-3	-3	-0.33	-7	-10	-7.57	-1.6	-4	-3.77	2.79	-6.53	-2	-8	–	–	–	–
CS(=O)(=O)CCNCc1ccc(-c2ccc3ncnc(Nc4ccc(OCc5cccc(F)c5)c(Cl)c4)c3c2)o1 [lapatinib]	–	8	-11	-4	5.43	–	–	–	–	–	–	–	–	6	4	5.46	2.14	-3.28	7	-6	%-inhibition of HCK ([1]; 1 µM): -0.366%; %-inhibition of SRM ([6]; 1 µM): 13%
C#Cc1cccc(Nc2ncnc3cc(OCCOC)c(OCCOC)cc23)c1 [erlotinib]	–	–	–	–	–	–	–	–	–	–	–	–	–	–	–	–	–	19	60	6	%-inhibition of HCK ([1]; 1 µM): 26%; %-inhibition of WEE1 ([2]; 1 µM): 20%; %-inhibition of SPHK1 ([3]; 1 µM): -14%; %-inhibition of IRR ([4]; 1 µM): -12%; %-inhibition of RSK3 ([5]; 1 µM): 9%; %-inhibition of TAK1-TAB1 [6]: 5%; %-inhibition of EML4-ALK ([6]; 1 µM): 26%; %-inhibition of SRM ([6]; 1 µM): 11%; %-inhibition of MAP3K5 ([7]; 1 µM): 5%; %-inhibition of TRKC ([8]; 1 µM): 13%; %-inhibition of ROS ([9]; 1 µM): 8.54%; %-inhibition of TIE2 ([10]; 1 µM): 9%
